Source: US11197859B2 (AUTIFONY THERAPEUTICS LIMITED, priority 2010, dated 2021)

Key:
[1] = target: T1, human Kv3.2 channels (hKv3.2) (Homo sapiens, UniProt Q96PR1); assay: IonWorks Quattro electrophysiology, hKv3.2 currents, activation time constant (Tauact); assay type: cell-based; conditions: hKv3.2, -15 mV pulse
T1 construct: expressed in transfected cells
T1 sequence (Q96PR1 1-638): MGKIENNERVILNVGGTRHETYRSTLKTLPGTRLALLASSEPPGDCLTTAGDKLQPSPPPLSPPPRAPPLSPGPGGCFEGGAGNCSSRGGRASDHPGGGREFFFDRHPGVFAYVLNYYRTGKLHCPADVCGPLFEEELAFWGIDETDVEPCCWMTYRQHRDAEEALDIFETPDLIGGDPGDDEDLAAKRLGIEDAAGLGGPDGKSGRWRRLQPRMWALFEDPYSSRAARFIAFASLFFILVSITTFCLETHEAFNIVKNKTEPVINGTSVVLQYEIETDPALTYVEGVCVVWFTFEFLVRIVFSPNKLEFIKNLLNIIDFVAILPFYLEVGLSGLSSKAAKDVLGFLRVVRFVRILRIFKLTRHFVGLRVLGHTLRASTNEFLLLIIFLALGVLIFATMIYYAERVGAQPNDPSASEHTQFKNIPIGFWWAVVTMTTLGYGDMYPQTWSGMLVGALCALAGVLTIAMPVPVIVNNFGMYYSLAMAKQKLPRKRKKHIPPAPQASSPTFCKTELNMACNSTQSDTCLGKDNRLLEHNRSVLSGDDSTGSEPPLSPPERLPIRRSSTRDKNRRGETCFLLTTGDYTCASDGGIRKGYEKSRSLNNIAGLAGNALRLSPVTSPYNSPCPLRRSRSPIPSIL
Protocol: The ability of the compounds of the disclosure to modulate the voltage-gated potassium channel subtypes Kv3.2/3.1 may be determined using the following assay.
To assess compound effects on human Kv3.2 channels (hKv3.2), a stable cell line expressing hKv3.2 was created by transfecting Chinese Hamster Ovary (CHO)-K1 cells with a pCIH5-hKv3.2 vector. Cells were cultured in DMEM/F12 medium supplemented by 10% Foetal Bovine Serum, 1× non-essential amino acids (Invitrogen) and 500 ug/ml of Hygromycin-B (Invitrogen). Cells were grown and maintained at 37° C. in a humidified environment containing 5% CO2 in air.
The day of the experiment, cells were removed from the incubator and the culture medium removed. Cells were washed with 5 ml of Dulbecco's PBS (DPBS) calcium and magnesium free and detached by the addition of 3 ml Versene (Invitrogen, Italy) followed by a brief incubation at 37° C. for 5 minutes. The flask was tapped to dislodge cells and 10 ml of DPBS containing calcium and magnesium was added to prepare a cell suspension. The cell suspension was then placed into a 15 ml centrifuge tube and centrifuged for 2 min at 1200 rpm. After centrifugation, the supernatant was removed and the cell pellet re-suspended in 4 ml of DPBS containing calcium and magnesium using a 5 ml pipette to break up the pellet. Cell suspension volume was then corrected to give a cell concentration for the assay of approximately 3 million cells per ml.
Experiments were conducted at room temperature using IonWorks Quattro™ planar array electrophysiology technology (Molecular Devices Corp.) with PatchPlate™ PPC. Stimulation protocols and data acquisition were carried out using a microcomputer (Dell Pentium 4). Planar electrode hole resistances(Rp) were determined by applying a 10 mV voltage step across each well. These measurements were performed before cell addition. […] Following this, amphotericin-B solution was added to the intracellular face of the electrode to achieve intracellular access. Cells were held at −70 mV. Leak subtraction was conducted in all experiments by applying 50 ms hyperpolarizing (10 mV) prepulses to evoke leak currents followed by a 20 ms period at the holding potential before test pulses. From the holding potential of −70 mV, a first test pulse to −15 mV was applied for 100 ms and following a further 100 ms at −70 mV, a second pulse to 40 mV was applied for 50 ms. Cells were then maintained for a further 100 ms at −100 mV and then a voltage ramp from −100 mV to 40 mV was applied over 200 ms. In all experiments, the test pulses protocol was performed in the absence (pre-read) and presence (post-read) of the test compound. Pre- and post-reads were separated by the compound addition followed by a 3 minute incubation.
The intracellular solution contained the following (in mM): K-gluconate 100, KCl 54, MgCl2 3.2, HEPES 5, adjusted to pH 7.3 with KOH. Amphotericin-B solution was prepared as 50 mg/ml stock solution in DMSO and diluted to a final working concentration of 0.1 mg/ml in intracellular solution.
The final assay dilution was 200 and the final compound concentrations were in the range 50 μM to 50 nM.
The recordings were analysed and filtered using both seal resistance (>20 MΩ) and peak current amplitude (>500 pA at the voltage step of 40 mV) in the absence of compound to eliminate unsuitable cells from further analysis. Kv3 channel-mediated outward currents were measured determined from the mean amplitude of the current over the final 10 ms of the −15 mV voltage pulse minus the mean baseline current at −70 mV over a 10 ms period just prior to the −15 mV step. This Kv3 channel currents following addition of the test compound were then compared with the currents recorded prior to compound addition. […] The normalised data were analysed using ActivityBase or Excel software.

[2] = system: common marmosets (Callithrix jacchus); assay: Pharmaco-electroencephalography (phEEG) in the common marmoset; assay type: in vivo
Protocol: Laboratory bred male (vasectomised) and female common marmosets (Callithrix jacchus) over 2 years of age, weighing 250-500 g were used in this study. The animals were caged in couples, in a housing room maintained at 25±1° C., 60% humidity and a 12 hour light/dark cycle (lights on at 0600, with 30 min simulated dawn and twilight). Animals received a standard diet and drinking water ad libitum. Only one animal of each pair was involved in the test, which was carried out with the animal situated in the home cage.
The effect of compounds of the disclosure was assessed using telemetric recording of cortical EEG (ECoG). A multichannel telemetric transmitter (DSI model TL11M2-F40-EET) is implanted intraperitoneally using standard surgical techniques in anaesthetised marmosets. Recording electrodes were permanently fixed, with dental cement, to the skull directly in contact with the dura mater through two drilled holes in the fronto-parietal region. Following surgery, animals were housed in pairs (one implanted, one unoperated partner) in their home cage with access to food and water ad libitum. […] All in vivo studies were conducted in accordance with the Italian laws and conformed to GlaxoSmithkline ethical standards.
The animals were placed in the nest-boxes in their room cages and EEG traces were recorded using Dataquest ART software for a 5-min period for each time-point and analyzed using Spike2 software (CED, UK). The spectral power in each frequency band was determined for each 2 sec epoch during the pre-treatment period and averaged; similarly spectral power in each band was determined for successive 2 sec epochs of each 5-min period of recording following vehicle or drug treatment. Change in the absolute spectral power, for each of the different bands (delta, theta, alpha and beta) was calculated offline.
Drug treatments were assigned according to a complete crossover design: All treatments were randomly distributed between animals, in separate experimental sessions, each animal received vehicle and each dose of drug, after an appropriate wash-out period.
Six animals were treated orally with Reference Example RE2 at the doses of 0.3, 1 and 3 mg/kg (1 ml/kg) and the EEG traces were recorded at +15, 30, 60, 90, 120 and 180 minutes following treatment. Reference Example RE2 was suspended in 12.5% (w/v) aqueous captisol containing 0.1% (w/v) Tween80 and 0.5% (w/v) HPMC.
Four different frequency bands were considered: delta (1.50-6.00 Hz), theta (6.00-8.00 Hz), alpha (8.00-12.00 Hz) and beta (12.00-30.00 Hz). Values for spectral power in each band at each time point were first log transformed and then analysed with a mixed effect model with time as fixed effect, the baseline level as covariate, and animal as random term. Data are summarised as mean of the percentage changes from baseline and standard error.

[3] = compound 3.1 μM (concentration giving ~0.3 nA current)
[4] = compound 0.4 μM (concentration giving ~0.3 nA current)
[5] = compound 1.6 μM (concentration giving ~0.3 nA current)
[6] = compound 0.8 μM (concentration giving ~0.3 nA current)

CCc1cc(Oc2ccc(N3C(=O)N[C@H](CC)C3=O)cn2)ccc1C#N
Tauact mean [1, 3]: 8.2 ms

CC1COc2cccc(Oc3ccc(N4C(=O)NC(C)(C)C4=O)cn3)c2C1 (single isomer, unassigned) [Example 25, 5,5-dimethyl-3-{6-[(3-methyl-3,4-dihydro-2H-chromen-5-yl)oxy]-3-pyridinyl}-2,4-imidazolidinedione]
Tauact mean ([1]; compound 6.25 μM (concentration giving ~0.3 nA current)): 7.87 ms

CC1(C)NC(=O)N(c2ccc(Oc3cccc4c3C3(CC3)CO4)nc2)C1=O [Example 16, 5,5-dimethyl-3-[6-(spiro[1-benzofuran-3,1′-cyclopropan]-4-yloxy)-3-pyridinyl]-2,4-imidazolidinedione]
Tauact mean [1, 4]: 19.3 ms

CC[C@@]1(C)NC(=O)N(c2cnc(Oc3ccc(C)c4c3C3(CC3)CO4)nc2)C1=O [Example 51, (5R)-5-ethyl-5-methyl-3-[2-(7-methylspiro[2H-benzofuran-3,1′-cyclopropane]-4-yl)oxypyrimidin-5-yl]imidazolidine-2,4-dione]
Tauact mean [1, 5]: 21.3 ms

CC[C@H]1NC(=O)N(c2cnc(Oc3ccc(C)c4c3C3(CC3)CO4)nc2)C1=O [Example 61, (5R)-5-ethyl-3-[2-(7-methylspiro[2H-benzofuran-3,1′-cyclopropane]-4-yl)oxypyrimidin-5-yl]imidazolidine-2,4-dione]
Tauact mean [1, 6]: 31.5 ms

CC[C@H]1NC(=O)N(c2ccc(Oc3ccc(C)c4c3C3(CC3)CO4)nc2)C1=O [Example 62, (5R)-5-ethyl-3-[6-(7-methylspiro[2H-benzofuran-3,1′-cyclopropane]-4-yl)oxy-3-pyridyl]imidazolidine-2,4-dione]
Tauact mean [1, 4]: 34.8 ms

CC[C@H]1NC(=O)N(c2ccc(Oc3ccc(C)c4c3C(C)(C)CO4)nc2)C1=O [Example 63, (5R)-5-ethyl-3-{6-[(3,3,7-trimethyl-2,3-dihydro-1-benzofuran-4-yl)oxy]-3-pyridinyl}-2,4-imidazolidinedione]
Tauact mean [1, 4]: 28.0 ms

CC[C@H]1NC(=O)N(c2cnc(Oc3ccc(C)c4c3C(C)(C)CO4)nc2)C1=O [Example 64, (5R)-5-ethyl-3-{2-[(3,3,7-trimethyl-2,3-dihydro-1-benzofuran-4-yl)oxy]-5-pyrimidinyl}-2,4-imidazolidinedione]
Tauact mean [1, 5]: 25.0 ms

CC[C@@]1(C)NC(=O)N(c2ccc(Oc3ccc(C)c4c3C3(CC3)CO4)nc2)C1=O [Example 65, (5R)-5-ethyl-5-methyl-3-[6-(7-methylspiro[2H-benzofuran-3,1′-cyclopropane]-4-yl)oxy-3-pyridyl]imidazolidine-2,4-dione]
Tauact mean [1, 6]: 24.0 ms

CC[C@@]1(C)NC(=O)N(c2ccc(Oc3ccc(C)c(OC)c3)nc2)C1=O [RE2, (5R)-5-ethyl-5-methyl-3-(6-{[4-methyl-3-(methyloxy)phenyl]oxy}-3-pyridinyl)-2,4-imidazolidinedione]
Tauact mean ([1]; compound 12.5 μM (concentration giving ~0.3 nA current)): 7.3 ms | absolute EEG power in the beta band ([2]; 1 mg/kg oral, at 30 minutes (concomitant), vs vehicle, p<0.05): significant reduction | absolute EEG power in delta band ([2]; 1 mg/kg oral, at 30 minutes, vs vehicle, p<0.10): marginally significant (p<0.10) increase | EEG theta band power ([2]; 3 mg/kg oral, at 60 minutes, vs vehicle, p<0.05): statistically significant increase | absolute EEG power in the delta band ([2]; 3 mg/kg oral, between 30 and 120 minutes, vs vehicle, p<0.05): statistically significant increase | EEG power in the alpha band ([2]; any dose (0.3, 1, 3 mg/kg oral)): No significant effects

CC[C@H]1NC(=O)N(c2ccc(Oc3ccc(C#N)cc3C(C)(C)C)nc2)C1=O [RE3, 3-(1,1-dimethylethyl)-4-({5-[(4R)-4-ethyl-2,5-dioxo-1-imidazolidinyl]-2-pyridinyl}oxy)benzonitrile]
Tauact mean ([1]; compound 0.2 μM (concentration giving ~0.3 nA current)): 23.0 ms

CC[C@H]1NC(=O)N(c2ccc(Oc3ccc(C#N)c(C(C)C)c3)nc2)C1=O [RE4, 4-({5-[(4R)-4-ethyl-2,5-dioxo-1-imidazolidinyl]-2-pyridinyl}oxy)-2-(1-methylethyl)benzonitrile]
Tauact mean [1, 6]: 9.2 ms

CC[C@H]1NC(=O)N(c2ccc(Oc3ccc(C#N)cc3C3CC3)nc2)C1=O [RE5, 3-cyclopropyl-4-({5-[(4R)-4-ethyl-2,5-dioxo-1-imidazolidinyl]-2-pyridinyl}oxy)benzonitrile]
Tauact mean [1, 3]: 13.0 ms

CC[C@H]1NC(=O)N(c2ccc(Oc3ccc(C#N)c(OC(F)(F)F)c3)nc2)C1=O [RE7, 4-({5-[(4R)-4-ethyl-2,5-dioxo-1-imidazolidinyl]-2-pyridinyl}oxy)-2-[(trifluoromethyl)oxy]benzonitrile]
Tauact mean [1, 3]: 10.4 ms

CC[C@H]1NC(=O)N(c2ccc(Oc3ccc(C#N)c(OC(C)C)c3)nc2)C1=O [RE8, 4-({5-[(4R)-4-ethyl-2,5-dioxo-1-imidazolidinyl]-2-pyridinyl}oxy)-2-[(1-methylethyl)oxy]benzonitrile]
Tauact mean [1, 3]: 9.7 ms
